Laboratory results taken from PubChem BioAssay (NCI).
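Growth conditions: 96-well plates. Treatment: test compound, 48 hours, 5 concentrations. Analysis: linear interpolation between bracketing concentrations; unreached endpoints set to highest concentration. GI50: concentration for 50% inhibition of growth. The concentration for full growth arrest is given as TGI.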 Where a SMILES comes first, the peptide text is derived from it. [ ]: non-standard residue; d: D form. The star is where a group is joined. Bn2Val = CC(C)[C@@H](C(=O)*)N(Cc1ccccc1)Cc1ccccc1; NH(4-Cl-benzyl) = Clc1ccc(CN*)cc1; NMeV = CN[C@H](C(=O)O)C(C)C; dNMeA = CN[C@H](C)C(=O)O

What was measured:
Test in all cases: DTP human tumour cell line panel, 48 h
HT29 colon = tested on: HT29 colon
M14 melanoma = tested on: M14 melanoma
KM12 colon = tested on: KM12 colon
MCF7 breast = tested on: MCF7 breast
PC-3 prostate = tested on: PC-3 prostate
U251 CNS = tested on: U251 CNS
OVCAR-3 ovarian = tested on: OVCAR-3 ovarian
SNB-75 CNS = tested on: SNB-75 CNS
NCI-H23 lung = tested on: NCI-H23 lung
HL-60(TB) leukemia = tested on: HL-60(TB) leukemia

Row | Structure (SMILES) | TGI (HT29 colon) [µM] | TGI (M14 melanoma) [µM] | TGI (KM12 colon) [µM] | TGI (MCF7 breast) [µM] | TGI (PC-3 prostate) [µM] | TGI (U251 CNS) [µM] | TGI (OVCAR-3 ovarian) [µM] | TGI (SNB-75 CNS) [µM] | TGI (NCI-H23 lung) [µM] | TGI (HL-60(TB) leukemia) [µM] | GI50 (HT29 colon) [µM] | GI50 (M14 melanoma) [µM] | GI50 (U251 CNS) [µM] | GI50 (SNB-75 CNS) [µM]
1 | COc1cccc(N=N/C(=N\NC(=O)c2ccc(C)cc2)c2ccc(N(CCC#N)CCC#N)cc2C)c1 | > 100 | > 100 | > 100 | > 100 | > 100 | > 100 | > 100 | > 100 | > 100 |  |  |  |  | 
2 | O=C(Cc1ccc(Cl)c(Cl)c1)NCC1(N2CCCCC2)CCCCC1 | > 100 | 34.4 | > 100 | > 100 | > 100 | > 100 | > 100 |  | > 100 | > 100 |  |  |  | 
3 | COc1cc2cc(C(=O)N3CC(COS(C)(=O)=O)c4ccc(O)cc43)[nH]c2c(OC)c1OC (stereo not drawn) |  |  | 0.0033 | 0.0402 |  | 0.137 | 0.000616 | 0.00149 | 0.00286 |  |  |  |  | 
4 | NCC(O)CSCc1ccc(Cl)cc1 (stereo not drawn) | > 100 | > 100 | > 100 | > 100 | > 100 | > 100 | > 100 |  | > 100 | > 100 |  |  |  | 
5 | COc1cc(C2C3=C(COC3=O)Oc3cc4c(cc32)OCO4)cc(OC)c1O (stereo not drawn) | 0.984 | > 100 | > 100 | > 48.2 | 4.67 | 14 | 19.8 |  | 1.81 | 0.294 |  |  |  | 
6 | NNC(=O)C1(NC(=O)c2ccccc2)C(c2ccccc2)C(c2ccccc2)=NN1c1ccccc1 (stereo not drawn) |  | 54.9 | > 100 | > 100 | > 100 | > 100 | > 100 | > 100 | > 100 |  |  |  |  | 
7 | COc1ccc(-c2oc3cc(O)cc(O)c3c(=O)c2OC)cc1 | 68.3 | > 100 |  | > 100 | > 100 | 52.1 | 60.9 |  |  | 38.4 |  |  |  | 
8 | NCc1cccc(O)c1O | > 100 | > 100 | > 100 |  |  | > 100 | > 100 | > 100 |  | > 100 |  |  |  | 
9 | O=[N+]([O-])c1cccc(N=Nc2c(O)c(S(=O)(=O)O)cc3cc(S(=O)(=O)O)ccc23)c1 |  | > 100 | > 100 | > 100 | > 100 | > 100 | > 100 | > 100 | > 100 | > 100 |  |  |  | 
10 | CC(C)C(C/C=C1\CC(CO)(COC(=O)C2CCCCC2)OC1=O)C(C)C (stereo not drawn) | 79.5 | 48.4 | 39.5 | 39 | 37.2 | 44.1 | 35.7 | 26.5 | 40.2 |  |  |  |  | 
11 | CCN(CC)C(=S)SS(=O)(=O)c1cccc(N)c1 | > 100 | > 100 | > 100 | > 100 |  | > 100 | > 100 |  | > 100 |  |  |  |  | 
12 | O=c1[nH]n(Cc2ccccc2)c2ccc([N+](=O)[O-])cc12 | > 100 | > 100 | > 100 | > 100 | > 100 | > 100 | > 100 |  | > 100 | > 100 |  |  |  | 
13 | CN=C(/N=c1\ssc(=NC)n1C)N(C)C | > 100 | > 100 | > 100 |  |  | > 100 | > 100 | > 100 | > 100 | > 100 |  |  |  | 
14 | Cc1c(C(=O)OCc2ccccc2)[n+](=O)c2cc(Cl)c(Cl)cc2n1[O-] | 32.2 | 28.3 | 24.6 | 54.4 | 55 | > 100 | 25 |  | 32.5 | 27.3 |  |  |  | 
15 | COC[C@@H](N=Cc1ccc([N+](=O)[O-])cc1)C(C)C | > 100 | > 100 | > 100 | > 100 | > 100 | > 100 |  | > 100 | > 100 |  |  |  |  | 
16 | CC1(C)CC(=O)C2(CC(CSc3ccccc3)C(CS(=O)(=O)c3ccccc3)C2)C(=O)C1 (stereo not drawn) | > 100 | > 100 | > 100 | > 100 | > 100 | > 100 | > 100 | > 100 | > 100 |  |  |  |  | 
17 | CCCCCCCCCCCCCCCCCCNc1nc(=O)n(C2CC(O)C(COP(=O)(O)O)O2)cc1F (stereo not drawn) | > 100 | > 100 | > 100 | > 100 | > 100 | > 100 | > 100 | > 100 | > 100 |  |  |  |  | 

Row | Structure (SMILES) | TGI (HT29 colon) [µM] | TGI (M14 melanoma) [µM] | TGI (KM12 colon) [µM] | TGI (MCF7 breast) [µM] | TGI (PC-3 prostate) [µM] | TGI (U251 CNS) [µM] | TGI (OVCAR-3 ovarian) [µM] | TGI (SNB-75 CNS) [µM] | TGI (NCI-H23 lung) [µM] | TGI (HL-60(TB) leukemia) [µM] | GI50 (HT29 colon) [µM] | GI50 (M14 melanoma) [µM] | GI50 (U251 CNS) [µM] | GI50 (SNB-75 CNS) [µM]
18 | COc1ccc(C(=O)CC(c2ccccc2)[C@H]2C(c3ccc(OC)cc3)=Nc3c(nc(SC)n(C)c3=O)NC2c2ccccc2)cc1 (stereo partly drawn) | > 100 | > 100 | > 100 | > 100 | > 100 | > 100 | > 100 |  | > 100 |  |  |  |  | 
19 | C=CCC1C(O[Si](C)(C)C(C)(C)C)C(CO[Si](C)(C)C(C)(C)C)OC1n1ccc(=O)[nH]c1=O (stereo not drawn) | 2.8 | 2.96 | > 100 |  | 3.72 | 5.66 | 3.34 | 2.79 | 2.8 |  |  |  |  | 
20 | C=CCP(=O)(CC=C)C(Cl)Cl | > 100 | > 100 |  | > 100 | > 100 | > 100 | > 100 | > 100 | > 100 | > 100 |  |  |  | 
21 | COc1cccc(N[C@@H]2c3cc4c(cc3C(c3cc(OC)c(O)c(OC)c3)[C@H]3C(=O)OCC32)OCO4)c1 (stereo partly drawn) | 10.5 |  | 7.06 | 14.4 |  | 13 | 68.6 |  | 9.96 | 0.487 |  |  |  | 
22 | C/C(=N\Nc1nc2ccccc2n1C)c1cc2ccccc2cn1 | 3.54 | 2.81 | 16.9 |  | > 20.7 | 4.59 |  | 11.8 | 7.4 | 1.41 |  |  |  | 
23 | CC(C)[C@H](NC(=O)[C@H](C(C)C)N(Cc1ccccc1)Cc1ccccc1)C(=O)N(C)[C@H](C(=O)N1CCC[C@H]1C(=O)N(C)[C@H](C)C(=O)NCc1ccc(Cl)cc1)C(C)C (Bn2Val-V[NMeV]P[dNMeA]-{NH(4-Cl-benzyl)}) | 3.54 | 30.1 | > 100 |  | > 100 | 20.1 | 9.67 | 29.6 | 28.6 | 3.97 |  |  |  | 
24 | C/C(=N\Nc1nc2cc(C(F)(F)F)ccc2s1)c1ccccn1 | 1.81 | 7.14 | 9.03 |  |  |  | 8.85 | 11.3 | 6.74 | 0.872 |  |  |  | 
25 | COc1cc(C2C(Cl)C(=O)N2c2c(C)n(C)n(-c3ccccc3)c2=O)ccc1O (stereo not drawn) | 36 | 30.7 | 44.6 | 48.7 | > 100 | 38 | > 100 |  | 34.2 | 64.1 |  |  |  | 
26 | Cn1c(=O)oc2nc(-c3ccccc3)cc(C(F)(F)F)c21 | > 100 | > 100 | > 100 | > 100 | > 100 | > 100 | > 100 | > 100 | > 100 |  |  |  |  | 
27 | C=C(C)[C@H]1C2=CC(C)=C(O2)[C@@H](O[C@@H]2c3oc(cc3C)[C@H](C(=C)C)[C@H]3C=C(CC[C@H]2C(=C)C)C(=O)O3)[C@H](C(=C)C)CCC2=C[C@H]1OC2=O |  | > 100 | > 100 | > 100 | > 100 | > 100 | > 100 | > 100 | > 100 | > 100 |  |  |  | 
28 | CC(C)/C(Cl)=N\OC(NC(=O)P(=O)(c1ccccc1)c1ccccc1)(C(F)(F)F)C(F)(F)F | 59.1 | 15.8 | 23.1 | 34 | 34.4 | 12 | 18.4 |  | 23.8 | 30.9 |  |  |  | 
29 | Nc1nc(Cl)cc(NC23CC4CC(CC(C4)C2)C3)n1 |  | > 100 | > 100 | > 100 | > 100 | > 100 | > 100 | 90.8 | > 100 |  |  |  |  | 
30 | O=c1oc(C(C(F)(F)F)C(F)(F)F)nc2ccccc12 | > 100 | > 100 |  | > 100 | > 100 | > 100 | > 100 |  | > 100 | > 100 |  |  |  | 
31 | c1ccc(/C(=N/Nc2ccncn2)c2ccccn2)cc1 | > 100 | 30.5 | 93 | > 100 | > 100 | > 100 | 32.5 | 57.8 | 46.5 |  |  |  |  | 
32 | CC1(C)CC2(CC(C)(C)N1O)NC(=O)OC2=O | > 100 |  | > 100 | > 100 |  | > 100 | > 100 | > 100 | > 100 | > 100 |  |  |  | 
33 | Cc1ccc(S(=O)CC(CF)OCn2cc(C)c(=O)[nH]c2=O)cc1 (stereo not drawn) |  | > 100 | > 100 | > 100 | > 100 | > 100 | > 100 | > 100 | > 100 | > 100 |  |  |  | 
34 | CCN=C1C=CC(=C(c2ccc(N(CC)CC)cc2)c2ccc(N(CC)CC)cc2)c2ccccc21 | 1.01 | 1.22 |  |  |  | 1.11 |  | 0.879 |  |  | 0.033 | 0.184 | 0.0348 | 0.0304
